Source: patent publication US9789202B2, “Method for treating cancer using an interferon alpha conjugate” (HANMI SCIENCE CO., LTD., priority 2011, dated 2017)

Tests used:
pancreatic cancer = details: cited from earlier work
[1] = test system: human pancreatic cancer cells (Panc-1); assay: In vivo anti-cancer effect in nude mice subcutaneously transplanted with human pancreatic cancer cells (Panc-1); design: species or system Athymic BALB/c nude mice; details: Panc-1 xenograft, measured for 4 weeks; gemcitabine 40 mg/kg Q3D x 3 weeks i.v.; conjugate or PEG interferon alpha 30 mcg/kg QW x 3 weeks s.c.; combination at the same doses
Method: 5-week old Athymic BALB/c nude mice were subcutaneously injected with 1×10^8/4 mL of Panc-1 cells cultured in vitro, and then cultured. Thereafter, the mice were subcutaneously transplanted with solid cancer having a size of 30 mm^2. Then, the mice were divided into 5 groups (G1, G2, G3, G4, G5) of six mice each according to the size of cancer subcutaneously transplanted.
Single administrations of a control group (Vehicle), gemcitabine (40 mg/kg, Q3D, 3 weeks, intravenous injection), PEG-modified interferon alpha (30 mcg/kg, QW×3 weeks, subcutaneous injection), and interferon alpha conjugate of the present invention (30 mcg/kg, QW, 3 weeks, subcutaneous injection), and co-administration of gemcitabine (40 mg/kg, Q3D, 3 weeks, intravenous injection) and interferon alpha conjugate of the present invention (30 mcg/kg, QW, 3 weeks, subcutaneous injection) to the groups were performed. After administration of the experimental substances for 3 weeks, changes in the tumor size of each group were measured for 4 weeks, and tumor inhibition rate relative to the control group was determined (Table 4).

[2] = test system: human pancreatic cancer cells (Miapaca-2); assay: In vivo anti-cancer effect in nude mice subcutaneously transplanted with human pancreatic cancer cells (Miapaca-2); design: species or system Athymic BALB/c nude mice; details: Miapaca-2 xenograft, measured for 4 weeks; gemcitabine 40 mg/kg Q3D x 4 weeks i.v.; conjugate or PEG interferon alpha 30 mcg/kg QW x 4 weeks s.c.; combinations at the same doses
Method: 5-week old Athymic BALB/c nude mice were subcutaneously injected with 1×10^8/4 mL of Miapaca-2 cells cultured in vitro, and then cultured. Thereafter, the mice were subcutaneously transplanted with solid cancer having a size of 30 mm^2. Then, the mice were divided into 5 groups (G1, G2, G3, G4, G5) of seven mice each according to the size of cancer subcutaneously transplanted.
Single administrations of a control group (Vehicle), gemcitabine (40 mg/kg, Q3D, 3 weeks, intravenous injection), PEG-modified interferon alpha (30 mcg/kg, QW×4 weeks, subcutaneous injection), and interferon alpha conjugate of the present invention (30 mcg/kg, QW, 4 weeks, subcutaneous injection), and co-administration of gemcitabine (40 mg/kg, Q3D, 4 weeks, intravenous injection) and interferon alpha conjugate of the present invention (30 mcg/kg, QW, 4 weeks, subcutaneous injection) to the groups were performed. After administration of the experimental substances for 3 weeks, changes in the tumor size of each group were measured for 4 weeks, and tumor inhibition rate relative to the control group was determined (Table 5).

[3] = test system: human pancreatic cancer cells (BxPC3); assay: In vivo anti-cancer effect in nude mice subcutaneously transplanted with human pancreatic cancer cells (BxPC3); design: species or system Athymic BALB/c nude mice; details: BxPC3 xenograft, 4 weeks; gemcitabine 30 mg/kg Q3D x 4 weeks i.v.; conjugate or PEG interferon alpha 30 mcg/kg QW x 4 weeks s.c.; combination at the same doses
Method: In order to measure the in vivo anti-cancer effect of the interferon alpha conjugate prepared in Example 1, changes in the tumor size were examined in the mice subcutaneously transplanted with human pancreatic cancer cells (BxPC3). 5-week old Athymic BALB/c nude mice were subcutaneously injected with 1×10^8/4 mL of BxPC3 cells cultured in vitro, and then cultured. […] After administration of the experimental substances, changes in the tumor size of each group were measured for 4 weeks, and tumor inhibition rate relative to the control group was determined (Table 3).

[4] = test system: human ovarian cancer cells (SK-OV-3); assay: In vivo anti-cancer effect in nude mice subcutaneously transplanted with human ovarian cancer cells (SK-OV-3); design: species or system Athymic BALB/c nude mice; details: SK-OV-3 xenograft, 4 weeks, subcutaneous injection; interferon alpha 30 mcg/kg (Q1D*5)*4 weeks; PEG interferon alpha and conjugate 150 mcg/kg QW x 4 weeks
Method: In order to measure the in vivo anti-cancer effect of the interferon alpha conjugate prepared in Example 1, changes in the tumor size were examined in the mice subcutaneously transplanted with human ovarian cancer cells (SK-OV-3).
5-week old Athymic BALB/c nude mice were subcutaneously injected with 1×10^8/4 mL of SK-OV-3 cells cultured in vitro, and then cultured. Thereafter, the mice were subcutaneously transplanted with solid cancer having a size of 30 mm^2. Then, the mice were divided into 4 groups (G1, G2, G3, G4) of five mice each according to the size of cancer subcutaneously transplanted.
Single administrations of a control group (Vehicle), interferon alpha (30 mcg/kg, Q1D×5 times×4 weeks, subcutaneous injection), PEG-modified interferon alpha (150 mcg/kg, QW×4 weeks, subcutaneous injection), and interferon alpha conjugate of the present invention (150 mcg/kg, QW×4 weeks, subcutaneous injection) to the groups were performed. After administration of the experimental substances, changes in the tumor size of each group were measured for 4 weeks, and tumor inhibition rate relative to the control group was determined (Table 2).

Daudi cells = assay: In vitro test on anti-proliferative efficacy in Daudi cells (CCK-8); format: cell-based, human; details: inhibition of Daudi cell proliferation, incubation 72 hours, CCK-8 absorbance at 450 nm
Method: Daudi cells were used, and RPMI1640 supplemented with 10% FBS and 10% PS was used as a culture medium and an experimental medium. Interferon alpha and interferon alpha conjugate of the present invention were diluted 4-fold with the experimental medium for 10 concentrations in 96-well round bottom plates. Each 50 μL of the diluted experimental medium was transferred to 96-well flat bottom plates. Daudi cells were centrifuged at 1000 rpm for 5 minutes, and then washed with 50 mL of PBS in a cornical tube. The cells were centrifuged at 1000 rpm for 5 minutes, and the experimental medium was added thereto, followed by counting the number of cells. Daudi cells were diluted to a concentration of 5×10^5 cell/mL, and then 100 μL was added to each well, followed by incubation at 37° C. for 72 hours. Then, 20 μL of CCK-8 was added to each well, and after 3 hours, absorbance was measured at 450 nm.
In vitro inhibitory effects of interferon alpha and interferon alpha conjugate of the present invention (long-acting interferon alpha conjugate) on cancer cell proliferation were examined by EC50 (Table 1, FIG. 1).

Compound	median overall survival (pancreatic cancer; advanced pancreatic cancer, single administration) [months]	1-year survival rate of pancreatic cancer patients (pancreatic cancer; metastatic pancreatic cancer) [%]	Tumor inhibition rate (%, relative to vehicle) [1] [%]	Tumor inhibition rate (%, relative to vehicle) [2] [%]	Tumor inhibition rate (%, relative to vehicle) [3] [%]	Tumor inhibition rate (%, relative to vehicle) [4] [%]	EC50 (Daudi cells) [ng/mL]
Nc1ccn([C@@H]2O[C@H](CO)[C@@H](O)C2(F)F)c(=O)n1 [Gemcitabine, 2′-deoxy-2′,2′-difluoro cytidine]	5.7	18	60	17	20		
Interferon alpha: interferon alpha prepared according to Korean Patent No. 10-0360594; human interferon alpha-2b						63.84	0.0217
